Consider two molecules from paper PMC5490826 (Viruses, 2017).

Holding throughout (type): binding
Assay [1] concerns the target NS5B Δ21 1b BK (Hepatitis C virus (isolate BK), UniProt P26663). Put plainly: SPR (Biacore), kinetic two-state model, immobilized enzyme.
Assay [2] concerns the target T1, NS5B Δ21 1b Con1 (Hepatitis C virus (isolate Con1), UniProt Q9WMX2). Described as above.
Assay [3] concerns the target NS5B Δ21 3a (Hepatitis C virus (isolate NZL1), UniProt Q81258). The following applies: read-out: Lomibuvir / 3a (±SD); pH 7.4, 25 °C, 10 mM MgCl2, 130 mM NaCl, 3% DMSO; allosteric, thumb II site.
The target of assay [4] is T1, NS5B Δ21 1b Con1. As to the kind of experiment: differential scanning fluorimetry (SYPRO Orange). The following applies: 2 µM protein, 10 µM inhibitor, 50 mM Tris-HCl pH 7.5, up to 2% DMSO; allosteric, palm site; unreliable (text b33 differs from table; not confirmed by SPR). (In general: Differential scanning fluorimetry follows unfolding on heating by fluorescence.)

NS5B Δ21 3a, sequence (Q81258 2431-3000, stated change not applied): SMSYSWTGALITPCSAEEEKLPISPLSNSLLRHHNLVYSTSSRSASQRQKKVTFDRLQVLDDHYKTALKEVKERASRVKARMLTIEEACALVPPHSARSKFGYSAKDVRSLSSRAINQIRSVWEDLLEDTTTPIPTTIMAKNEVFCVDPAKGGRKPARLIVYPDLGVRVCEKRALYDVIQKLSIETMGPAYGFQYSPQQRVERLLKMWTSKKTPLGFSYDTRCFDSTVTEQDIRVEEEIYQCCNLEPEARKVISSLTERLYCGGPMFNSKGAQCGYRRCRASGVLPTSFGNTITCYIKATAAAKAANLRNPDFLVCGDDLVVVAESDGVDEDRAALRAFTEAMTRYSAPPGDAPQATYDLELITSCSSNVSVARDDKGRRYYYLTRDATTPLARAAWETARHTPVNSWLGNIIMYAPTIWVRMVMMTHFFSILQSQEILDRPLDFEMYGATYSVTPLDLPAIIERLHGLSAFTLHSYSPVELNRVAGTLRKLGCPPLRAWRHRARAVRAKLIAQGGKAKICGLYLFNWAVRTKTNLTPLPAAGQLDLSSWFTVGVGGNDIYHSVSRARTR
NS5B Δ21 1b BK, sequence (P26663 2420-2989, stated change not applied): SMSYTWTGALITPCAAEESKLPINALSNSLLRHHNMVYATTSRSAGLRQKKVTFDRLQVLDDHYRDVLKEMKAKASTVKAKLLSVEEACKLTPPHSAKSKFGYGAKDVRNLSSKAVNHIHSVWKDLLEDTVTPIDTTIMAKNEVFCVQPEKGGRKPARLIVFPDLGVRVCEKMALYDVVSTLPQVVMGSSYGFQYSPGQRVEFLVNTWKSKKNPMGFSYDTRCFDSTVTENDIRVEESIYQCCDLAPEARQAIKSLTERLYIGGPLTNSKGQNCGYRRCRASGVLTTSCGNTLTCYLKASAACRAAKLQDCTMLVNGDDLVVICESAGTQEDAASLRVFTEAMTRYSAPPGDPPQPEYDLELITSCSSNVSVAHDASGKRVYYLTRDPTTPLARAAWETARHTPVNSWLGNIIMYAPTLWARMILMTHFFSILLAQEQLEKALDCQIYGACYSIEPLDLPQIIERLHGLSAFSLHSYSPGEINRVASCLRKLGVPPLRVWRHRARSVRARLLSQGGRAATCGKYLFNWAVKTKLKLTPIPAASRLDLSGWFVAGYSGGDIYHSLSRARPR

As for `CC(C)(C)C#Cc1cc(N(C(=O)[C@H]2CC[C@H](C)CC2)[C@H]2CC[C@H](O)CC2)c(C(=O)O)s1` [lomibuvir], the Kd in assay [1] is 20 ± 0.4 nM; in assay [2] it was 19 ± 7 nM; in assay [3], above 2000 nM.

With `CNC(=O)c1c(-c2ccc(F)cc2)oc2cc(N(CCO)S(C)(=O)=O)c(C3CC3)cc12` [nesbuvir], the “1b Con1 / ΔTm” value in assay [4] turned out to be 5 °C.
